In US20040014696A1, “Specificity in treatment of diseases” (priority 2003, published 2004):

Key:
[1] = RBC radioactivity in portal vein-cannulated cynomolgus monkeys; settings: for Medium RBC Radioactivity (Monkeys - multiple doses) / Medium RBC Radioactivity (Monkeys - single dose) / Time to peak radioactivity concentration in RBC: cynomolgus monkeys; for Medium RBC Radioactivity (Monkeys - multiple doses): projected steady state; for Medium RBC Radioactivity (Monkeys - single dose) / Time to peak radioactivity concentration in RBC: single oral dose 30 mg/kg
[2] = Liver radioactivity in mice after repeated oral dosing; type: in vivo; settings: oral 300 mg/kg daily for 8 days; for Total Liver Radioactivity: Cmin in liver; for Modified Ribavirin in liver: analyte modified Ribavirin
[3] = Toxicity findings (hemolytic anemia, RBCs) in Rhesus monkeys; settings: 60 mg/kg followed by 30 mg/kg*day for 10 days
[4] = RBC radioactivity in mice after repeated oral dosing; type: in vivo; settings: oral 300 mg/kg daily for 8 days; for Medium RBC Radioactivity (Mice): Cmin in RBCs
[5] = tested on: RBCs; assay: In vitro transport into RBCs; type: cell-based; settings: in vitro studies (data not shown)
[6] = Spontaneous hydrolysis in Dulbecco's PBS buffer without enzyme; type: physicochemical
Protocol: (§1) Adenosine deaminase (ADA) isolated from calf intestine was purchased from Boehringer Mannheim. The assay was performed in Dulbecco's PBS buffer (Na2HPO4, 8 mM; […] KCl, 2.7 mM; NaCl, 138 mM; pH 7.2) at room temperature (23° C.). […] Taking the limit of the UV assay method, the spontaneous hydrolysis of viramidine will be less than 2.5×10^−5 min^−1.

[7] = tested on: erythrocytes; assay: Phosphorylation in erythrocytes; type: cell-based
Excerpt: For example, the selectivity of the pharmacological effect of 1-beta-D-ribofuranosyl-1,2,4-triazole-3-carboxamide (Ribavirin, Structure 1) is increased by covalently coupling an ═NH group to Ribavirin to form a carboxamidine group. Ribavirin is known to have antiviral properties in hepatitis virus-infected hepatocytes (e.g., see review Marcellin, P. and Benhamou J.; Treatment of chronic viral hepatitis, Baillieres Clin Gastroenteol 1994 June; 8(2):233-53). It is also known, that Ribavirin is readily phosphorylated in erythrocytes to the pharmacologically active form Ribavirin-phosphate at a significant rate (e.g., Homma, M. et al. High-performance liquid chromatographic determination of Ribavirin in whole blood to assess disposition in erythrocytes; Antimicrob Agents Chemother 1999 November; 43(11):2716-9), which reduces the selective pharmacological effect.

[8] = Liver radioactivity estimated from portal vs systemic plasma in portal vein-cannulated monkeys; type: in vivo
[9] = biological target: T1, Adenosine deaminase (ADA) (Bos taurus, UniProt P56658); assay: In vitro deamination by adenosine deaminase (UV 240 nm, mass spectrum); type: biochemical, calf; settings: 0.2 mM compound with 0.5 μM ADA overnight, mass spectrum analysis
T1 construct: Adenosine deaminase (ADA) isolated from calf intestine; purchased Boehringer Mannheim; host or cells: calf intestine (tissue-isolated)
T1 sequence (P56658 1-363): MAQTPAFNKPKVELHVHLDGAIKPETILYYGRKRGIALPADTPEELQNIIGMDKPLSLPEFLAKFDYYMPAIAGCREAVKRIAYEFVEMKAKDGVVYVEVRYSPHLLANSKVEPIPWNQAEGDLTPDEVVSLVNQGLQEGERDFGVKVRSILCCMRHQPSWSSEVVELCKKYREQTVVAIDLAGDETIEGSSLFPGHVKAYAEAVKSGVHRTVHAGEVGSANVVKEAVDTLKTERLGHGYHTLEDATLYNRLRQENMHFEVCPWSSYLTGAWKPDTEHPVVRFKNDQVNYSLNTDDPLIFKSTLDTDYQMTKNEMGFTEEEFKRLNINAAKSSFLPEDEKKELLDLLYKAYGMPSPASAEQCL
Protocol: as §1, with “min^−1. […] The enzyme turnover number was estimated about 2.5 min^−1 at the current assay condition.” for “min^−1.”

Compound | Medium RBC Radioactivity (Monkeys - multiple doses) ([1]; multiple dosing at 30 mg/kg) | Medium RBC Radioactivity (Monkeys - single dose) [1] | Time to peak radioactivity concentration in RBC [1] | Projected steady-state RBC radioactivity concentrations, comparison ([1]; multiple dosing at 30 mg/kg, Ribavirin compared to modified Ribavirin) | Total Liver Radioactivity [2] | Radioactivity concentration Cmin in the liver, comparison ([2]; Ribavirin compared to modified Ribavirin) | Modified Ribavirin in liver [2] | Toxicity findings on RBCs [3] | Medium RBC Radioactivity (Mice) [4] | Transport into RBCs [5] | Spontaneous hydrolysis rate ([6]; limit of the UV assay method, pH 7.2) | Spontaneous hydrolysis in buffer ([6]; no enzyme, pH 7.2, 1.5 h, 23° C.) | Effect of zinc ion on spontaneous hydrolysis rate ([6]; zinc ion added to the buffer) | Share of liver radioactivity accounted for by modified Ribavirin [2] | RTCA in liver ([2]; analyte RTCA) | Phosphorylation in erythrocytes [7] | RBC radioactivity as compared to Ribavirin ([8]; monkeys) | Liver radioactivity concentration, higher than after oral dosing of Ribavirin ([8]; portal vein-cannulated monkeys, oral administration) | Conversion to Ribavirin [9] | Radioactivity concentration Cmin in RBCs, comparison ([4]; modified Ribavirin vs Ribavirin)
NC(=O)c1ncn([C@@H]2O[C@H](CO)[C@@H](O)[C@H]2O)n1 [Ribavirin, 1-beta-D-ribofuranosyl-1,2,4-triazole-3-carboxamide, reference compound] | ˜5089 μg equiv/g | ˜41 μg equiv/g | 24 h | significantly higher | 18.4 μg equiv/g | significantly lower | not detected | suffered from hemolytic anemia and significant decrease in RBCs | 1.36 μg equiv/g |  |  |  |  |  |  |  |  |  |  | 
N=C(N)c1ncn([C@@H]2O[C@H](CO)[C@@H](O)[C@H]2O)n1 [modified Ribavirin, 1-beta-D-ribofuranosyl-1,2,4-triazole-3-carboxamidine] | ˜606 μg equiv/g | ˜17 μg equiv/g | 24 h |  | 23.8 μg equiv/g |  | ˜7.2 μg eguiv/g μg equiv/g | no significant changes in RBCs | 0.38 μg equiv/g | not directly transported into RBCs | less than 2.5×10^−5 min^−1 | no spontaneous hydrolysis | does not enhance the spontaneous hydrolysis rate | about 30% | not detected | is not, or is only insignificantly phosphorylated in erythrocytes | ~12% | approximately 50% | more than 75% | significantly lower
